The data set concerns CCRIS mutagenicity, Ames/micronucleus/aberration tests. Briefly: CCRIS mutagenicity studies.
Where [1] appears, read: Test System: AMES SALMONELLA TYPHIMURIUM, Strain/Indicator: TA98, Metabolic Activation: NONE, Method: STANDARD PLATE.
[2] abbreviates: Test System: AMES SALMONELLA TYPHIMURIUM, Strain/Indicator: TA98, Metabolic Activation: RAT LIVER S-9, AROCLOR 1254, Method: STANDARD PLATE.
[3] abbreviates: Test System: AMES SALMONELLA TYPHIMURIUM, Strain/Indicator: TA100, Metabolic Activation: NONE, Method: STANDARD PLATE.
Setting [4] is: Test System: AMES SALMONELLA TYPHIMURIUM, Strain/Indicator: TA100, Metabolic Activation: RAT LIVER S-9, AROCLOR 1254, Method: STANDARD PLATE.
Where [5] appears, read: Test System: AMES SALMONELLA TYPHIMURIUM, Strain/Indicator: TA98, Metabolic Activation: NONE, Method: PREINCUBATION
Setting [6] is: Test System: AMES SALMONELLA TYPHIMURIUM, Strain/Indicator: TA100, Metabolic Activation: NONE, Method: PREINCUBATION
Where [7] appears, read: Test System: AMES SALMONELLA TYPHIMURIUM, Strain/Indicator: TA1535, Metabolic Activation: NONE, Method: PREINCUBATION

Calls of active or inactive are those of the source. How the calls were made is not given here.

Consider 9 compounds from PubChem BioAssay AID1259407 (Chemical Carcinogenesis Research Information System (CCRIS), 2018).

On to `Cc1ccc2[nH]c3c(C)ccc(C)c3c2c1`, for which the mutagenic call under setting [1] is “inactive; negative”, the mutagenic call under setting [2] was “active; positive”, the mutagenic call under setting [3] was “inactive; negative” and the mutagenic call under setting [4] was “inactive; negative”.
For `c1ccc2c(c1)-c1ccccc1C1OC21` (stereo not given), the mutagenic call under setting [1] was “active; positive”.
In the case of `O=S(=O)(O)c1ccc(O)c2ncccc12`, the mutagenic call runs as follows: under setting [5], “inactive; negative”; (Test System: AMES SALMONELLA TYPHIMURIUM, Strain/Indicator: TA98, Metabolic Activation: RAT, LIVER, S-9, Method: PREINCUBATION) “active; positive”; under setting [6], “inactive; negative”; (Test System: AMES SALMONELLA TYPHIMURIUM, Strain/Indicator: TA100, Metabolic Activation: RAT, LIVER, S-9, Method: PREINCUBATION) “active; positive”.
In the case of `CC1(C)CC(N=C=O)CC(C)(CN=C=O)C1` (stereo not given), the mutagenic call is “inactive; negative” (Test System: AMES SALMONELLA TYPHIMURIUM, Strain/Indicator: TA98, Metabolic Activation: HAMSTER, LIVER, S-9, AROCLOR 1254 (10%), Method: PREINCUBATION); “inactive; negative” under setting [5]; “inactive; negative” (Test System: AMES SALMONELLA TYPHIMURIUM, Strain/Indicator: TA98, Metabolic Activation: RAT, LIVER, S-9, AROCLOR 1254 (10%), Method: PREINCUBATION); “inactive; negative” (Test System: AMES SALMONELLA TYPHIMURIUM, Strain/Indicator: TA100, Metabolic Activation: HAMSTER, LIVER, S-9, AROCLOR 1254 (10%), Method: PREINCUBATION); “inactive; negative” under setting [6]; “inactive; negative” (Test System: AMES SALMONELLA TYPHIMURIUM, Strain/Indicator: TA100, Metabolic Activation: RAT, LIVER, S-9, AROCLOR 1254 (10%), Method: PREINCUBATION). Moreover, the mutagenic call by setting is: (Test System: AMES SALMONELLA TYPHIMURIUM, Strain/Indicator: TA1535, Metabolic Activation: HAMSTER, LIVER, S-9, AROCLOR 1254 (10%), Method: PREINCUBATION) “inactive; negative”; under setting [7], “inactive; negative”; (Test System: AMES SALMONELLA TYPHIMURIUM, Strain/Indicator: TA1535, Metabolic Activation: RAT, LIVER, S-9, AROCLOR 1254 (10%), Method: PREINCUBATION) “inactive; negative”; (Test System: AMES SALMONELLA TYPHIMURIUM, Strain/Indicator: TA1537, Metabolic Activation: HAMSTER, LIVER, S-9, AROCLOR 1254 (10%), Method: PREINCUBATION) “inactive; negative”; (Test System: AMES SALMONELLA TYPHIMURIUM, Strain/Indicator: TA1537, Metabolic Activation: NONE, Method: PREINCUBATION) “inactive; negative”; (Test System: AMES SALMONELLA TYPHIMURIUM, Strain/Indicator: TA1537, Metabolic Activation: RAT, LIVER, S-9, AROCLOR 1254 (10%), Method: PREINCUBATION) “inactive; negative”.
For `CCc1ccc(C)cc1`, the mutagenic call is “inactive; negative” (Test System: AMES SALMONELLA TYPHIMURIUM, Strain/Indicator: TA97A, Metabolic Activation: NONE, Method: STANDARD PLATE); “inactive; negative” (Test System: AMES SALMONELLA TYPHIMURIUM, Strain/Indicator: TA97A, Metabolic Activation: RAT LIVER S-9, AROCLOR 1254, Method: STANDARD PLATE); “inactive; negative” under setting [1]; “inactive; negative” under setting [2]; “inactive; negative” under setting [3]; “inactive; negative” under setting [4]. The mutagenic call was “inactive; negative” (Test System: AMES SALMONELLA TYPHIMURIUM, Strain/Indicator: TA102, Metabolic Activation: NONE, Method: STANDARD PLATE) and “inactive; negative” (Test System: AMES SALMONELLA TYPHIMURIUM, Strain/Indicator: TA102, Metabolic Activation: RAT LIVER S-9, AROCLOR 1254, Method: STANDARD PLATE).
Regarding `O[C@H]1C=Cc2ccc3nc4ccc5ccccc5c4cc3c2[C@@H]1O`, the mutagenic call reads like this: (Test System: AMES SALMONELLA TYPHIMURIUM, Strain/Indicator: TA98, Metabolic Activation: GUINEA PIG, LIVER, S-9, 3-METHYLCHOLANTHRENE, Method: STANDARD PLATE) “active; positive”; (Test System: AMES SALMONELLA TYPHIMURIUM, Strain/Indicator: TA100, Metabolic Activation: GUINEA PIG, LIVER, S-9, 3-METHYLCHOLANTHRENE, Method: STANDARD PLATE) “active; positive”; (Test System: CHINESE HAMSTER V-79, Strain/Indicator: V-79/6-THIOGUANINE, Metabolic Activation: GUINEA PIG, LIVER, S-9, 3-METHYLCHOLANTHRENE) “active; positive”.
On to `Clc1ccc2ccc3cccc4ccc1c2c34`, for which the mutagenic call by setting is: (Test System: AMES SALMONELLA TYPHIMURIUM, Strain/Indicator: TA98, Metabolic Activation: RAT, LIVER, S-9, AROCLOR 1254, Method: STANDARD PLATE) “active; positive”; (Test System: AMES SALMONELLA TYPHIMURIUM, Strain/Indicator: TA100, Metabolic Activation: RAT, LIVER, S-9, AROCLOR 1254, Method: STANDARD PLATE) “active; positive”.
For the compound `CC1=C(Cl)C(=O)OC1O` (stereo not given), the mutagenic call under setting [3] is “active; positive”; the mutagenic call (Test System: Ames Salmonella typhimurium, Strain/Indicator: TA100, Metabolic Activation: None, Method: Plate incorporation) is “active; positive”; the mutagenic call (Test System: Ames Salmonella typhimurium, Strain/Indicator: TA104, Metabolic Activation: None, Method: Plate incorporation) is “active; positive”; the mutagenic call (Test System: UDS RAT HEPATOCYTES, Strain/Indicator: THYMIDINE INCORPORATION, Metabolic Activation: NONE, Method: AUTORADIOGRAPHY) is “active; positive”.
As for `CNC(=O)c1ccccc1`, the mutagenic call is, setting by setting: (Test System: AMES SALMONELLA TYPHIMURIUM, Strain/Indicator: TA97, Metabolic Activation: HAMSTER, LIVER, S-9, AROCLOR 1254 (10 OR 30%), Method: PREINCUBATION) “inactive; negative”; (Test System: AMES SALMONELLA TYPHIMURIUM, Strain/Indicator: TA97, Metabolic Activation: NONE, Method: PREINCUBATION) “inactive; negative”; (Test System: AMES SALMONELLA TYPHIMURIUM, Strain/Indicator: TA97, Metabolic Activation: RAT, LIVER, S-9, AROCLOR 1254 (10 OR 30%), Method: PREINCUBATION) “inactive; negative”; (Test System: AMES SALMONELLA TYPHIMURIUM, Strain/Indicator: TA98, Metabolic Activation: HAMSTER, LIVER, S-9, AROCLOR 1254 (10 OR 30%), Method: PREINCUBATION) “inactive; negative”; under setting [5], “inactive; negative”; (Test System: AMES SALMONELLA TYPHIMURIUM, Strain/Indicator: TA98, Metabolic Activation: RAT, LIVER, S-9, AROCLOR 1254 (10 OR 30%), Method: PREINCUBATION) “inactive; negative”. Further, the mutagenic call is, setting by setting: (Test System: AMES SALMONELLA TYPHIMURIUM, Strain/Indicator: TA100, Metabolic Activation: HAMSTER, LIVER, S-9, AROCLOR 1254 (10 OR 30%), Method: PREINCUBATION) “inactive; negative”; under setting [6], “inactive; negative”; (Test System: AMES SALMONELLA TYPHIMURIUM, Strain/Indicator: TA100, Metabolic Activation: RAT, LIVER, S-9, AROCLOR 1254 (10 OR 30%), Method: PREINCUBATION) “inactive; negative”; (Test System: AMES SALMONELLA TYPHIMURIUM, Strain/Indicator: TA1535, Metabolic Activation: HAMSTER, LIVER, S-9, AROCLOR 1254 (10 OR 30%), Method: PREINCUBATION) “inactive; negative”; under setting [7], “inactive; negative”; (Test System: AMES SALMONELLA TYPHIMURIUM, Strain/Indicator: TA1535, Metabolic Activation: RAT, LIVER, S-9, AROCLOR 1254 (10 OR 30%), Method: PREINCUBATION) “inactive; negative”.
